pEC50: −log10 of the molar value. Read-outs that look alike come from different tables or passages of the source.
How the values were obtained:
[1] = system: HCV genotype 1b (Con1) replicon in HUH-7 cells; test: HCV replicon luciferase reporter assay, genotype 1b; assay type: cell-based; conditions: Hepatitis C virus, 72 h, HCV genotype 1b replicon luciferase, 3 days incubation, read-out: LE_1b (EC50, range)
In short: (§1)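 Twenty-point, threefold compound titrations (0.5% DMSO) were incubated 3 days at 37 °C with 3.0×10^3 HUH-7 cells/well in 4% FCS. The cells stably carried luciferase replicons: genotype 1b Con1 (S1179I) or 1a H77 (NS3 P1496L, NS5A S2204I). Renilla signal was read after 2 h with 7.5 μM EnduRen, and EC50 was taken from a four-parameter logistic fit. Cytotoxicity (CC50) was measured by Cell Titer-Blue, 8 h.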

[2] = system: HCV genotype 1a (H77 strain) replicon in HUH-7 cells; test: HCV replicon luciferase reporter assay, genotype 1a; assay type: cell-based; conditions: Hepatitis C virus, Huh-7, 72 h, HCV genotype 1a replicon luciferase, 3 days incubation, read-out: LE_1a (EC50, range)
In short: as §1

With `CCOc1ccc2c(O[C@@H]3C[C@H]4C(=O)N[C@]5(C(=O)NS(=O)(=O)C6CC6)C[C@H]5/C=C\CC[C@@H](C)C[C@@H](C)[C@H](NC(=O)OC(C)(C)C(F)(F)F)C(=O)N4C3)nccc2c1` [Compound 5130, 1,1,1-trifluoro-2-methylpropan-2-yl ((2R,6S,7R,9R,13aS,14aR,16aS,Z)-14a-((cyclopropylsulfonyl)carbamoyl)-2-((6-ethoxyisoquinolin-1-yl)oxy)-7,9-dimethyl-5,16-dioxo-1,2,3,5,6,7,8,9,10,11,13a,14,14a,15,16,16a-hexadecahydrocyclopropa[e]pyrrolo[1,2-a][1,4]diazacyclopentadecin-6-yl)carbamate] the pEC50 ([1]; class symbols) was > 8.26 and the pEC50 ([2]; class symbols) was > 8.26.
For `CCOc1ccc2c(O[C@@H]3C[C@H]4C(=O)N[C@]5(C(=O)NS(=O)(=O)C6CC6)C[C@H]5/C=C\CC[C@H](C)C[C@@H](C)[C@H](NC(=O)O[C@@H]5C[C@@H]6C[C@@H]6C5)C(=O)N4C3)nccc2c1` [Compound 5131, (1R,3r,5S)-bicyclo[3.1.0]hexan-3-yl ((2R,6S,7R,9S,13aS,14aR,16aS,Z)-14a-((cyclopropylsulfonyl)carbamoyl)-2-((6-ethoxyisoquinolin-1-yl)oxy)-7,9-dimethyl-5,16-dioxo-1,2,3,5,6,7,8,9,10,11,13a,14,14a,15,16,16a-hexadecahydrocyclopropa[e]pyrrolo[1,2-a][1,4]diazacyclopentadecin-6-yl)carbamate], the pEC50 ([1]; class symbols) was > 8.26 and the pEC50 ([2]; class symbols) was > 8.26.
`CCOc1ccc2c(O[C@@H]3C[C@H]4C(=O)N[C@]5(C(=O)NS(=O)(=O)C6CC6)C[C@H]5/C=C\CC[C@@H](C)C[C@@H](C)[C@H](NC(=O)O[C@@H]5C[C@@H]6C[C@@H]6C5)C(=O)N4C3)nccc2c1` [Compound 5132, (1R,3r,5S)-bicyclo[3.1.0]hexan-3-yl ((2R,6S,7R,9R,13aS,14aR,16aS,Z)-14a-((cyclopropylsulfonyl)carbamoyl)-2-((6-ethoxyisoquinolin-1-yl)oxy)-7,9-dimethyl-5,16-dioxo-1,2,3,5,6,7,8,9,10,11,13a,14,14a,15,16,16a-hexadecahydrocyclopropa[e]pyrrolo[1,2-a][1,4]diazacyclopentadecin-6-yl)carbamate] was tested, and the pEC50 ([1]; class symbols) was > 8.26 and the pEC50 ([2]; class symbols) was > 8.26.
In the case of `CCOc1ccc2c(O[C@@H]3C[C@H]4C(=O)N[C@]5(C(=O)NS(=O)(=O)C6(C)CC6)C[C@H]5/C=C\CC[C@H](C)C[C@@H](C)[C@H](NC(=O)OC(C)(C)C(F)(F)F)C(=O)N4C3)nccc2c1` [Compound 5135, 1,1,1-trifluoro-2-methylpropan-2-yl ((2R,6S,7R,9S,13aS,14aR,16aS,Z)-2-((6-ethoxyisoquinolin-1-yl)oxy)-7,9-dimethyl-14a-(((1-methylcyclopropyl)sulfonyl)carbamoyl)-5,16-dioxo-1,2,3,5,6,7,8,9,10,11,13a,14,14a,15,16,16a-hexadecahydrocyclopropa[e]pyrrolo[1,2-a][1,4]diazacyclopentadecin-6-yl)carbamate], the pEC50 ([1]; class symbols) was > 8.26 and the pEC50 ([2]; class symbols) was 6.99 to 8.32.
With `CCOc1ccc2c(O[C@@H]3C[C@H]4C(=O)N[C@]5(C(=O)NS(=O)(=O)C6(C)CC6)C[C@H]5/C=C\CC[C@@H](C)C[C@@H](C)[C@H](NC(=O)OC(C)(C)C(F)(F)F)C(=O)N4C3)nccc2c1` [Compound 5136, 1,1,1-trifluoro-2-methylpropan-2-yl ((2R,6S,7R,9R,13aS,14aR,16aS,Z)-2-((6-ethoxyisoquinolin-1-yl)oxy)-7,9-dimethyl-14a-(((1-methylcyclopropyl)sulfonyl)carbamoyl)-5,16-dioxo-1,2,3,5,6,7,8,9,10,11,13a,14,14a,15,16,16a-hexadecahydrocyclopropa[e]pyrrolo[1,2-a][1,4]diazacyclopentadecin-6-yl)carbamate] the pEC50 ([1]; class symbols) was > 8.26 and the pEC50 ([2]; class symbols) was > 8.26.
`CCOc1ccc2c(O[C@@H]3C[C@H]4C(=O)N[C@]5(C(=O)NS(=O)(=O)C6(C)CC6)C[C@H]5/C=C\CC[C@H](C)C[C@@H](C)[C@H](NC(=O)O[C@@H]5C[C@@H]6C[C@@H]6C5)C(=O)N4C3)nccc2c1` [Compound 5137, (1R,3r,5S)-bicyclo[3.1.0]hexan-3-yl ((2R,6S,7R,9S,13aS,14aR,16aS,Z)-2-((6-ethoxyisoquinolin-1-yl)oxy)-7,9-dimethyl-14a-(((1-methylcyclopropyl)sulfonyl)carbamoyl)-5,16-dioxo-1,2,3,5,6,7,8,9,10,11,13a,14,14a,15,16,16a-hexadecahydrocyclopropa[e]pyrrolo[1,2-a][1,4]diazacyclopentadecin-6-yl)carbamate] was tested, and the pEC50 ([1]; class symbols) was > 8.26 and the pEC50 ([2]; class symbols) was > 8.26.
With `CCOc1ccc2c(O[C@@H]3C[C@H]4C(=O)N[C@]5(C(=O)NS(=O)(=O)C6(C)CC6)C[C@H]5/C=C\CC[C@@H](C)C[C@@H](C)[C@H](NC(=O)O[C@@H]5C[C@@H]6C[C@@H]6C5)C(=O)N4C3)nccc2c1` [Compound 5138, (1R,3r,5S)-bicyclo[3.1.0]hexan-3-yl ((2R,6S,7R,9R,13 aS,14aR,16aS,Z)-2-((6-ethoxyisoquinolin-1-yl)oxy)-7,9-dimethyl-14a-(((1-methylcyclopropyl)sulfonyl)carbamoyl)-5,16-dioxo-1,2,3,5,6,7,8,9,10,11,13a,14,14a,15,16,16a-hexadecahydrocyclopropa[e]pyrrolo[1,2-a][1,4]diazacyclopentadecin-6-yl)carbamate] the pEC50 ([1]; class symbols) was > 8.26 and the pEC50 ([2]; class symbols) was > 8.26.
For `CCCOc1ccc2c(O[C@@H]3C[C@H]4C(=O)N[C@]5(C(=O)NS(=O)(=O)C6CC6)C[C@H]5/C=C\CC[C@@H](C)C[C@@H](C)[C@H](NC(=O)OC(C(F)(F)F)(C(Cl)(Cl)Cl)C(Cl)(Cl)Cl)C(=O)N4C3)nccc2c1` [Compound 5173, 1,1,1,3,3,3-hexachloro-2-(trifluoromethyl)propan-2-yl ((2R,6S,7R,9R,13aS,14aR,16aS,Z)-14a-((cyclopropylsulfonyl)carbamoyl)-7,9-dimethyl-5,16-dioxo-2-((6-propoxyisoquinolin-1-yl)oxy)-1,2,3,5,6,7,8,9,10,11,13a,14,14a,15,16,16a-hexadecahydrocyclopropa[e]pyrrolo[1,2-a][1,4]diazacyclopentadecin-6-yl)carbamate], the pEC50 ([1]; range class) was > 8.26 and the pEC50 ([2]; range class) was > 8.26.
With `[2H]C([2H])([2H])C(OC(=O)N[C@@H]1C(=O)N2C[C@H](Oc3nccc4cc(OC)ccc34)C[C@H]2C(=O)N[C@]2(C(=O)NS(=O)(=O)C3(C)CC3)C[C@H]2/C=C\CC[C@H](C)C[C@H]1C)(C([2H])([2H])[2H])C(F)(F)F` [Compound 5174, 1,1,1,3,3,3-hexadeutero-2-(trifluoromethyl)propan-2-yl ((2R,6S,7R,9S,13aS,14aR,16aS,Z)-2-((6-methoxyisoquinolin-1-yl)oxy)-7,9-dimethyl-14a-(((1-methylcyclopropyl)sulfonyl)carbamoyl)-5,16-dioxo-1,2,3,5,6,7,8,9,10,11,13a,14,14a,15,16,16a-hexadecahydrocyclopropa[e]pyrrolo[1,2-a][1,4]diazacyclopentadecin-6-yl)carbamate] the pEC50 ([1]; range class) was > 8.26 and the pEC50 ([2]; range class) was > 8.26.
For `[2H]C([2H])([2H])C(OC(=O)N[C@@H]1C(=O)N2C[C@H](Oc3nccc4cc(OC)ccc34)C[C@H]2C(=O)N[C@]2(C(=O)NS(=O)(=O)C3(C)CC3)C[C@H]2/C=C\CC[C@@H](C)C[C@H]1C)(C([2H])([2H])[2H])C(F)(F)F` [Compound 5175, 1,1,1,3,3,3-hexadeutero-2-(trifluoromethyl)propan-2-yl ((2R,6S,7R,9R,13aS,14aR,16aS,Z)-2-((6-methoxyisoquinolin-1-yl)oxy)-7,9-dimethyl-14a-(((1-methylcyclopropyl)sulfonyl)carbamoyl)-5,16-dioxo-1,2,3,5,6,7,8,9,10,11,13a,14,14a,15,16,16a-hexadecahydrocyclopropa[e]pyrrolo[1,2-a][1,4]diazacyclopentadecin-6-yl)carbamate], the pEC50 ([1]; range class) was > 8.26 and the pEC50 ([2]; range class) was > 8.26.
For `[2H]C([2H])([2H])C(C)(OC(=O)N[C@@H]1C(=O)N2C[C@H](Oc3nccc4cc(OC)ccc34)C[C@H]2C(=O)N[C@]2(C(=O)NS(=O)(=O)C3(C)CC3)C[C@H]2/C=C\CC[C@H](C)C[C@H]1C)C([2H])([2H])[2H]` [Compound 5176, 1,1,1,3,3,3-hexadeutero-2-methylpropan-2-yl ((2R,6S,7R,9S,13aS,14aR,16aS,Z)-2-((6-methoxyisoquinolin-1-yl)oxy)-7,9-dimethyl-14a-(((1-methylcyclopropyl)sulfonyl)carbamoyl)-5,16-dioxo-1,2,3,5,6,7,8,9,10,11,13a,14,14a,15,16,16a-hexadecahydrocyclopropa[e]pyrrolo[1,2-a][1,4]diazacyclopentadecin-6-yl)carbamate], the pEC50 ([1]; range class) was > 8.26 and the pEC50 ([2]; range class) was 6.99 to 8.32.
For `[2H]C([2H])([2H])C(C)(OC(=O)N[C@@H]1C(=O)N2C[C@H](Oc3nccc4cc(OC)ccc34)C[C@H]2C(=O)N[C@]2(C(=O)NS(=O)(=O)C3(C)CC3)C[C@H]2/C=C\CC[C@@H](C)C[C@H]1C)C([2H])([2H])[2H]` [Compound 5177, 1,1,1,3,3,3-hexadeutero-2-methylpropan-2-yl ((2R,6S,7R,9R,13aS,14aR,16aS,Z)-2-((6-methoxyisoquinolin-1-yl)oxy)-7,9-dimethyl-14a-(((1-methylcyclopropyl)sulfonyl)carbamoyl)-5,16-dioxo-1,2,3,5,6,7,8,9,10,11,13a,14,14a,15,16,16a-hexadecahydrocyclopropa[e]pyrrolo[1,2-a][1,4]diazacyclopentadecin-6-yl)carbamate], the pEC50 ([1]; range class) was > 8.26 and the pEC50 ([2]; range class) was > 8.26.

Source: US9527885B2, “Hepatitis C virus inhibitors” (BRISTOL-MYERS SQUIBB COMPANY, priority 2011, dated 2016)
